Read-outs that look alike come from different tables or passages of the source.
Experiments:
[1] = tested on: NCI-H358 cells (express KRas G12C), Phospho-ERK; assay: Cellular inhibition of KRas G12C: Phospho-ERK in NCI-H358 cells; type: cell-based; conditions: pERK(Thr202/Tyr204) normalized with GAPDH, NCI-H358 cells, 3 hours, read-out: IC50
Summary of the method: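 IC50 derived by 4-parameter fit of GAPDH-normalized pERK(Thr202/Tyr204) signal, as percent of DMSO control. Signal came from in-cell immunodetection with infrared secondaries after 3 h compound exposure of KRas G12C NCI-H358 cells at 0.5% DMSO.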

KRas G12C = KRas G12C (Homo sapiens, UniProt P01116, C118S/C51S/C80L/G12C); assay: KRas G12C Modification Assay (LCMS detection of covalent adduct); type: binding; conditions: normalized percent of control; tested at 5 μM concentration for 3 hours
Summary of the method: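 Covalent modification was read by reverse-phase LC/MS of intact protein after compound exposure, each reaction stopped at its time point with 25 mM acetic acid. Unmodified-protein signal, taken as percent of total, was normalised to untreated protein and reported as POC.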

Structure (SMILES)	POC (KRas G12C)	IC50 [1] [µM]	IC50 ([1]; Homo sapiens, NCI-H358, 3 h) [µM]	IC50 ([1]; Homo sapiens) [µM]
C=CC(=O)N1CCN(c2nc(OC[C@@H]3CCCN3C)nc3c2CCN(c2cccc4ccc(Cl)cc24)C3)CC1CC#N (stereo partly drawn) [Example 286, 2-(1-acryloyl-4-(7-(7-chloronaphthalen-1-yl)-2-(((S)-1-methylpyrrolidin-2-yl)methoxy)-5,6,7,8-tetrahydropyrido[3,4-d]pyrimidin-4-yl)piperazin-2-yl)acetonitrile]	C (“C”>50% POC)	0.0001 to 1	–	–
C=CC(=O)N1CCN(c2nc(OCCCN3CCOCC3)nc3c2CCN(c2cccc4cccc(C)c24)C3)C[C@@H]1CC#N [Example 370, (S)-2-(1-acryloyl-4-(7-(8-methylnaphthalen-1-yl)-2-(3-morpholinopropoxy)-5,6,7,8-tetrahydropyrido[3,4-d]pyrimidin-4-yl)piperazin-2-yl)acetonitrile]	C (“C”>50% POC)	–	0.0001 to 1	–
C=CC(=O)N1CCN(c2ncnc3c2CCN(c2c(C)ccc4[nH]ncc24)C3)CC1 [Example 7, 1-(4-(7-(5-methyl-1H-indazol-4-yl)-5,6,7,8-tetrahydropyrido[3,4-d]pyrimidin-4-yl)piperazin-1-yl)prop-2-en-1-one]	A (“A”≤25% POC)	–	> 1	–
C=CC(=O)N1CCN(c2nc(OC[C@@H]3CCCN3C)nc3c2CCN(c2c(F)c(O)cc4ccccc24)C3)CC1 [Example 249, 1-[4-[7-(2-fluoro-3-hydroxy-1-naphthyl)-2-[[(2S)-1-methylpyrrolidin-2-yl]methoxy]-6,8-dihydro-5H-pyrido[3,4-d]pyrimidin-4-yl]piperazin-1-yl]prop-2-en-1-one]	C (“C”>50% POC)	–	–	0.0001 to 1
C=CC(=O)N1CCN(c2nc(OC[C@@H]3CCCN3C)nc3c2CCN(c2cncc4ccccc24)C3)CC1CC#N (stereo partly drawn) [Example 260, 2-[4-[7-(4-isoquinolyl)-2-[[(2S)-1-methylpyrrolidin-2-yl]methoxy]-6,8-dihydro-5H-pyrido[3,4-d]pyrimidin-4-yl]-1-prop-2-enoyl-piperazin-2-yl]acetonitrile]	C (“C”>50% POC)	–	0.0001 to 1	–
C=CC(=O)N1CCN(c2nc(OCC3CCN(C)C3)nc3c2CCN(c2c(C)ccc4[nH]ncc24)C3)CC1 (stereo not drawn) [Example 161, 1-[4-[7-(5-methyl-1H-indazol-4-yl)-2-[(1-methylpyrrolidin-3-yl)methoxy]-6,8-dihydro-5H-pyrido[3,4-d]pyrimidin-4-yl]piperazin-1-yl]prop-2-en-1-one]	C (“C”>50% POC)	–	–	> 1
C=CC(=O)N1CCN(c2nc(OCCN3CCCC[C@@H]3C)nc3c2CCN(c2cc(O)cc4ccccc24)C3)CC1 [Example 88, (S)-1-(4-(7-(3-hydroxynaphthalen-1-yl)-2-(2-(2-methylpiperidin-1-yl)ethoxy)-5,6,7,8-tetrahydropyrido[3,4-d]pyrimidin-4-yl)piperazin-1-yl)prop-2-en-1-one]	C (“C”>50% POC)	–	0.0001 to 1	–
C=CC(=O)N1CCN(c2nc(OCC3CCN(C)C3)nc3c2CCN(c2cc(O)cc4ccccc24)C3)CC1 (stereo not drawn) [Example 89, 1-(4-(7-(3-hydroxynaphthalen-1-yl)-2-((l-methylpyrrolidin-3-yl)methoxy)-5,6,7,8-tetrahydropyrido[3,4-d]pyrimidin-4-yl)piperazin-1-yl)prop-2-en-1-one]	C (“C”>50% POC)	–	0.0001 to 1	–
C=CC(=O)N1CCN(c2nc(OC[C@H]3CCCN3C)nc3c2CCN(c2cccc(F)c2C(F)(F)F)C3)C[C@@H]1CC#N [Example 274, 2-((S)-1-acryloyl-4-(7-(3-fluoro-2-(trifluoromethyl)phenyl)-2-(((R)-1-methylpyrrolidin-2-yl)methoxy)-5,6,7,8-tetrahydropyrido[3,4-d]pyrimidin-4-yl)piperazin-2-yl)acetonitrile]	C (“C”>50% POC)	–	0.0001 to 1	–
C=CC(=O)N1CCN(c2nc(O[C@H](C)CN(C)C)nc3c2CCN(c2cc(O)cc(Cl)c2C(C)C)C3)CC1 [Example 76, (R)-1-(4-(7-(3-chloro-5-hydroxy-2-isopropylphenyl)-2-((1-(dimethylamino)propan-2-yl)oxy)-5,6,7,8-tetrahydropyrido[3,4-d]pyrimidin-4-yl)piperazin-1-yl)prop-2-en-1-one]	C (“C”>50% POC)	–	–	> 1
C=CC(=O)N1CCN(c2nc(O[C@H](C)[C@H]3CCCN3C)nc3c2CCN(c2cc(O)cc4ccccc24)C3)CC1 [Example 129, 1-[4-[7-(3-hydroxy-1-naphthyl)-2-[(1R)-1-[(2R)-1-methylpyrrolidin-2-yl]ethoxy]-6,8-dihydro-5H-pyrido[3,4-d]pyrimidin-4-yl]piperazin-1-yl]prop-2-en-1-one]	C (“C”>50% POC)	–	0.0001 to 1	–
C=CC(=O)N1CCN(c2nc(OC[C@@H]3CCCN3C)nc3c2CCN(c2cccc4cccc(C)c24)C3)C[C@@H]1CC#N [Example 359, 2-((S)-1-acryloyl-4-(7-(8-methylnaphthalen-1-yl)-2-(((S)-1-methylpyrrolidin-2-yl)methoxy)-5,6,7,8-tetrahydropyrido[3,4-d]pyrimidin-4-yl)piperazin-2-yl)acetonitrile]	C (“C”>50% POC)	–	0.0001 to 1	–
C=CC(=O)N1CCN(c2nc(OC[C@@H]3CCCN3C)nc3c2CCN(c2cccc4ccc(C)cc24)C3)C[C@@H]1CC#N [Example 326, 2-((S)-1-acryloyl-4-(7-(7-methylnaphthalen-1-yl)-2-(((S)-1-methylpyrrolidin-2-yl)methoxy)-5,6,7,8-tetrahydropyrido[3,4-d]pyrimidin-4-yl)piperazin-2-yl)acetonitrile]	C (“C”>50% POC)	–	0.0001 to 1	–
C=CC(=O)N1CCN(c2nc(OC[C@@H]3CCN(C)C3)nc3c2CCN(c2ccccc2C(F)(F)F)C3)CC1CC#N (stereo partly drawn) [Example 298, 2-(1-acryloyl-4-(2-(((R)-1-methylpyrrolidin-3-yl)methoxy)-7-(2-(trifluoromethyl)phenyl)-5,6,7,8-tetrahydropyrido[3,4-d]pyrimidin-4-yl)piperazin-2-yl)acetonitrile]	C (“C”>50% POC)	0.0001 to 1	–	–

Further lines, with some results ahead:

POC (KRas G12C)	Structure (SMILES)	IC50 [1] [µM]	IC50 ([1]; Homo sapiens, NCI-H358, 3 h) [µM]	IC50 ([1]; Homo sapiens) [µM]
C (“C”>50% POC)	C=CC(=O)N1CCN(c2nc(OC[C@@H]3CN(C)CCO3)nc3c2CCN(c2cccc4ccccc24)C3)CC1CC#N (stereo partly drawn) [Example 442, 2-(1-Acryloyl-4-(2-(((S)-4-methylmorpholin-2-yl)methoxy)-7-(naphthalen-1-yl)-5,6,7,8-tetrahydropyrido[3,4-d]pyrimidin-4-yl)piperazin-2-yl)acetonitrile]	0.0001 to 1	–	–
C (“C”>50% POC)	C=CC(=O)N1CCN(c2nc(OC[C@@H]3CCCN3C)nc3c2CCN(c2cccc4cccc(Br)c24)C3)C[C@@H]1CC#N [Example 461, 2-((S)-1-acryloyl-4-(7-(8-bromonaphthalen-1-yl)-2-(((S)-1-methylpyrrolidin-2-yl)methoxy)-5,6,7,8-tetrahydropyrido[3,4-d]pyrimidin-4-yl)piperazin-2-yl)acetonitrile]	–	0.0001 to 1	–
C (“C”>50% POC)	CN(C)C/C=C/C(=O)N1CCN(c2nc(OC[C@H]3CCCN3C)nc3c2CCN(c2cccc(Cl)c2C(F)(F)F)C3)C[C@@H]1CC#N [Example 422, 2-((S)-4-(7-(3-chloro-2-(trifluoromethyl)phenyl)-2-(((R)-1-methylpyrrolidin-2-yl)methoxy)-5,6,7,8-tetrahydropyrido[3,4-d]pyrimidin-4-yl)-1-((E)-4-(dimethylamino)but-2-enoyl)piperazin-2-yl)acetonitrile]	–	0.0001 to 1	–
C (“C”>50% POC)	Cc1cccc2cccc(N3CCc4c(nc(OC[C@@H]5CCCN5C)nc4N4CCN(C(=O)/C=C/CN5CCOCC5)[C@@H](CC#N)C4)C3)c12 [Example 457, 2-[(2S)-4-[7-(8-methyl-1-naphthyl)-2-[[(2S)-1-methylpyrrolidin-2-yl]methoxy]-6,8-dihydro-5H-pyrido[3,4-d]pyrimidin-4-yl]-1-[(E)-4-morpholinobut-2-enoyl]piperazin-2-yl]acetonitrile]	–	0.0001 to 1	–
C (“C”>50% POC)	C=CC(=O)N1CCN(c2nc(OC[C@@H]3CCCN3C)nc3c2CCN(c2cccc(F)c2C)C3)CC1CC#N (stereo partly drawn) [Example 410, 2-(1-acryloyl-4-(7-(3-fluoro-2-methylphenyl)-2-(((S)-1-methylpyrrolidin-2-yl)methoxy)-5,6,7,8-tetrahydropyrido[3,4-d]pyrimidin-4-yl)piperazin-2-yl)acetonitrile]	–	0.0001 to 1	–
C (“C”>50% POC)	C=CC(=O)N1CCN(c2nc(OC[C@@H]3C[C@@H](F)CN3C(C)C)nc3c2CCN(c2cncc(F)c2C(F)(F)F)C3)C[C@@H]1CC#N [Example 386, 2-((S)-1-acryloyl-4-(2-(((2S,4R)-4-fluoro-1-isopropylpyrrolidin-2-yl)methoxy)-7-(5-fluoro-4-(trifluoromethyl)pyridin-3-yl)-5,6,7,8-tetrahydropyrido[3,4-d]pyrimidin-4-yl)piperazin-2-yl)acetonitrile]	–	–	0.0001 to 1
C (“C”>50% POC)	C=CC(=O)N1CCN(c2nc(OC[C@@H]3CCCN3C)nc3c2CCN(c2cccc(Cl)c2Cl)C3)C[C@@H]1CC#N [Example 420, 2-((S)-1-acryloyl-4-(7-(2,3-dichlorophenyl)-2-(((S)-1-methylpyrrolidin-2-yl)methoxy)-5,6,7,8-tetrahydropyrido[3,4-d]pyrimidin-4-yl)piperazin-2-yl)acetonitrile]	–	0.0001 to 1	–

From patent US10125134B2 (Mirati Therapeutics, Inc., priority 2016, dated 2018)
